We go through two substances from PMC9657394, “Purification and Characterization of Bot33: A Non-Toxic Peptide from the Venom of Buthus occitanus tunetanus Scorpion” (Molecules, 2022).

One data set has as its system mice. Also noted: method as in PMID 1730708. The note with it: ref [22]; cited from earlier work.
Another data set relates to hKv1.3. Briefly: Two-electrode voltage-clamp, Kv1.3 expressed in Xenopus laevis oocytes. The format is cell-based, mammalian. The following applies: 1 µM, 250-ms depolarization to 0 mV from −90 mV, pH 7.4, 18–22 °C. The text has this: (§1) For the expression of Kv channels (mammalian rKv1.1, rKv1.2, hKv1.3, rKv1.4, rKv1.5, rKv1.6, and Drosophila Shaker IR) in Xenopus laevis oocytes, the linearized plasmids were transcribed using the T7 or SP6 mMESSAGE-mMACHINE transcription kit (Ambion, Carlsbad, CA, USA). The harvesting of stage V–VI oocytes from anesthetized female Xenopus laevis frog was previously described in compliance with the regulations of the European Union (EU) concerning the welfare of laboratory animals as declared in Directive 2010/63/EU. The use of X. laevis oocytes was approved by the Animal Ethics Committee of the KU Leuven with the license number P186/2019. Oocytes were injected with 50 nl of cRNA at a concentration of 1 ng/nl using a microinjector (Drummond Scientific, Broomall, PA, USA). […]
(§2) Two-electrode voltage-clamp recordings were performed at room temperature (18–22 °C) using a Geneclamp 500 amplifier (Molecular Devices, Downingtown, PA, USA) controlled by a pClamp data acquisition system (Axon Instruments, Union City, CA, USA). Whole-cell currents from oocytes were recorded 1–4 days after injection. […] All data were analyzed using pClamp Clampfit 10.1 (Molecular Devices, Downingtown, PA, USA) and Origin 7.5 software (Originlab, Northampton, MA, USA).
On the technique in general: Two-electrode voltage clamp is typically applied to oocytes expressing channels or transporters.

A further data set deals with Shaker IR. Briefly: Two-electrode voltage-clamp, Shaker IR expressed in Xenopus laevis oocytes. The format is cell-based, Drosophila. The note with it: 1 µM, 250-ms depolarization to 0 mV from −90 mV, pH 7.4, 18–22 °C.
From the text: as §1, §2

On to KTX: toxin with LD50 ≈ 24 ng/20 g mice, for which the LD50 entry in the data set with mice is “≈ 24 ng/20 g mice”.
As for “ChTx: control toxin tested on Kv1.3 and Shaker IR”, in the data set on hKv1.3, the “effect on Kv1.3 current” value is “completely inhibited the current”. For the same substance, the “effect on Shaker IR current” value in the data set on Shaker IR is “completely inhibited the current”.
